# Columns and labels:
# Type in all cases: in vivo
# [1] = tested on: barnyardgrass (Echinochloa crus-galli); assay: Test A pre-/postemergence plant response
# Source text: (§1) Seeds of species selected from barnyardgrass (Echinochloa crus-galli), large crabgrass (Digitaria sanguinalis), giant foxtail (Setaria faberi), blackgrass (Alopecurus myosuroides), canarygrass (Phalaris minor), morningglory (Ipomoea coccinea), pigweed (Amaranthus retroflexus), velvetleaf (Abutilon theophrasti), wheat (Triticum aestivum), and corn (Zea mays) were planted into a blend of loam soil and sand and treated preemergence with a directed soil spray using test chemicals formulated in a non-phytotoxic solvent mixture which included a surfactant. At the same time these species were also treated with postemergence applications of test chemicals formulated in the same manner.
# (§2) Plants ranged in height from 2 to 10 cm and were in the one- to two-leaf stage for the postemergence treatment. Treated plants and untreated controls were maintained in a greenhouse for approximately 10 days, after which time all treated plants were compared to untreated controls and visually evaluated for injury. Plant response ratings, summarized in Table A, are based on a 0 to 100 scale where 0 is no effect and 100 is complete control. A dash (-) response means no test results.
# [2] = tested on: blackgrass (Alopecurus myosuroides); assay: Test A pre-/postemergence plant response
# Source text: as §1, §2
# [3] = tested on: canarygrass (Phalaris minor); assay: Test A pre-/postemergence plant response
# Source text: as §1, §2
# corn (Zea mays) = assay: Test A pre-/postemergence plant response
# Source text: as §1, §2
# [4] = tested on: giant foxtail (Setaria faberi); assay: Test A pre-/postemergence plant response
# Source text: as §1, §2
# [5] = tested on: large crabgrass (Digitaria sanguinalis); assay: Test A pre-/postemergence plant response
# Source text: as §1, §2
# [6] = tested on: pigweed (Amaranthus retroflexus); assay: Test A pre-/postemergence plant response
# Source text: as §1, §2
# [7] = tested on: wheat (Triticum aestivum); assay: Test A pre-/postemergence plant response
# Source text: as §1, §2
# [8] = tested on: morningglory (Ipomoea coccinea); assay: Test A pre-/postemergence plant response
# Source text: as §1, §2
# [9] = tested on: velvetleaf (Abutilon theophrasti); assay: Test A pre-/postemergence plant response
# Source text: as §1, §2
# [10] = tested on: barnyardgrass (Echinochloa crus-galli); assay: Test B flooded paddy test plant response
# Source text: (§3) Plant species in the flooded paddy test consisted of rice (Oryza sativa), umbrella sedge (Cyperus difformis), ducksalad (Heteranthera limosa) and barnyardgrass (Echinochloa crus-galli) grown to the 2-leaf stage for testing. At time of treatment, test pots were flooded to 3 cm above the soil surface, treated by application of test compounds directly to the paddy water, and then maintained at that water depth for the duration of the test. Treated plants and controls were maintained in a greenhouse for 13 to 15 days, after which time all species were compared to controls and visually evaluated. Plant response ratings, summarized in Table B, are based on a scale of 0 to 100 where 0 is no effect and 100 is complete control. A dash (-) response means no test result.
# [11] = tested on: ducksalad (Heteranthera limosa); assay: Test B flooded paddy test plant response
# Source text: as §3
# rice (Oryza sativa) = assay: Test B flooded paddy test plant response
# Source text: as §3
# [12] = tested on: umbrella sedge (Cyperus difformis); assay: Test B flooded paddy test plant response
# Source text: as §3
# [13] = Postemergence, 31 g ai/ha, 0 to 100 scale (0 no effect, 100 complete control)
# [14] = Postemergence, 125 g ai/ha, 0 to 100 scale, 0 no effect, 100 complete control
# [15] = Preemergence, 31 g ai/ha, 0 to 100 scale, 0 is no effect, 100 is complete control
# [16] = Preemergence, 125 g ai/ha, 0 to 100 scale (0 no effect, 100 complete control)
# [17] = Flood (flooded paddy test), 62 g ai/ha, scale 0 to 100, 0 no effect, 100 complete control
# [18] = Flood (flooded paddy test), 125 g ai/ha, scale 0 to 100, 0 no effect, 100 complete control
# [19] = Flood (flooded paddy test), 250 g ai/ha, scale 0 to 100, 0 no effect, 100 complete control
# [20] = Flood, 31 g ai/ha, scale 0 to 100
compound,measurement,setting,value
CCc1cc(-c2ccc(C(F)(F)F)cc2)nn1-c1c(OC(=O)C2CCCCC2)cnn(C)c1=O [Compound 95],"Plant response rating, Barnyardgrass",[1]; [13],100
same,"Plant response rating, Barnyardgrass",[1]; [14],100
same,"Plant response rating, Barnyardgrass",[1]; [15],50
same,"Plant response rating, Barnyardgrass",[1]; [16],100
same,"Plant response rating, Blackgrass",[2]; [13],70
same,"Plant response rating, Blackgrass",[2]; [14],100
same,"Plant response rating, Blackgrass",[2]; [15],90
same,"Plant response rating, Blackgrass",[2]; [16],100
same,"Plant response rating, Canarygrass",[3]; [13],90
same,"Plant response rating, Canarygrass",[3]; [14],100
same,"Plant response rating, Canarygrass",[3]; [15],70
same,"Plant response rating, Canarygrass",[3]; [16],100
same,"Plant response rating, Corn",corn (Zea mays); [13],90
same,"Plant response rating, Corn",corn (Zea mays); [14],100
same,"Plant response rating, Corn",corn (Zea mays); [15],40
same,"Plant response rating, Corn",corn (Zea mays); [16],90
same,"Plant response rating, Foxtail, Giant",[4]; [13],100
same,"Plant response rating, Foxtail, Giant",[4]; [14],100
same,"Plant response rating, Foxtail, Giant",[4]; [15],100
same,"Plant response rating, Foxtail, Giant",[4]; [16],100
same,"Plant response rating, Crabgrass, Large",[5]; [13],90
same,"Plant response rating, Crabgrass, Large",[5]; [14],100
same,"Plant response rating, Crabgrass, Large",[5]; [15],90
same,"Plant response rating, Crabgrass, Large",[5]; [16],100
same,"Plant response rating, Pigweed",[6]; [13],0
same,"Plant response rating, Pigweed",[6]; [14],0
same,"Plant response rating, Pigweed",[6]; [15],0
same,"Plant response rating, Pigweed",[6]; [16],0
same,"Plant response rating, Wheat",[7]; [13],70
same,"Plant response rating, Wheat",[7]; [14],80
same,"Plant response rating, Wheat",[7]; [15],80
same,"Plant response rating, Wheat",[7]; [16],90
Cn1ncc(O)c(-c2nn(-c3ccc(C(F)(F)F)cc3)cc2Cl)c1=O [Compound 88],"Plant response rating, Barnyardgrass",[1]; [13],10
same,"Plant response rating, Barnyardgrass",[1]; [14],90
same,"Plant response rating, Barnyardgrass",[1]; [15],0
same,"Plant response rating, Barnyardgrass",[1]; [16],90
same,"Plant response rating, Blackgrass",[2]; [13],10
same,"Plant response rating, Blackgrass",[2]; [14],70
same,"Plant response rating, Blackgrass",[2]; [15],40
same,"Plant response rating, Blackgrass",[2]; [16],80
same,"Plant response rating, Canarygrass",[3]; [13],30
same,"Plant response rating, Canarygrass",[3]; [14],70
same,"Plant response rating, Canarygrass",[3]; [15],0
same,"Plant response rating, Canarygrass",[3]; [16],70
same,"Plant response rating, Corn",corn (Zea mays); [13],0
same,"Plant response rating, Corn",corn (Zea mays); [14],50
same,"Plant response rating, Corn",corn (Zea mays); [15],0
same,"Plant response rating, Corn",corn (Zea mays); [16],20
same,"Plant response rating, Foxtail, Giant",[4]; [13],40
same,"Plant response rating, Foxtail, Giant",[4]; [14],90
same,"Plant response rating, Foxtail, Giant",[4]; [15],40
same,"Plant response rating, Foxtail, Giant",[4]; [16],90
same,"Plant response rating, Crabgrass, Large",[5]; [13],40
same,"Plant response rating, Crabgrass, Large",[5]; [14],90
same,"Plant response rating, Crabgrass, Large",[5]; [15],0
same,"Plant response rating, Crabgrass, Large",[5]; [16],90
same,"Plant response rating, Pigweed",[6]; [13],0
same,"Plant response rating, Pigweed",[6]; [14],0
same,"Plant response rating, Pigweed",[6]; [15],0
same,"Plant response rating, Pigweed",[6]; [16],0
same,"Plant response rating, Wheat",[7]; [13],20
same,"Plant response rating, Wheat",[7]; [14],60
same,"Plant response rating, Wheat",[7]; [15],0
same,"Plant response rating, Wheat",[7]; [16],40
CCc1cc(-c2ccc(Cl)s2)nn1-c1c(O)cnn(C)c1=O [Compound 63],"Plant response rating, Barnyardgrass",[1]; [13],0
same,"Plant response rating, Barnyardgrass",[1]; [14],20
same,"Plant response rating, Barnyardgrass",[1]; [15],0
same,"Plant response rating, Barnyardgrass",[1]; [16],10
same,"Plant response rating, Corn",corn (Zea mays); [13],0
same,"Plant response rating, Corn",corn (Zea mays); [14],30
same,"Plant response rating, Corn",corn (Zea mays); [15],0
same,"Plant response rating, Corn",corn (Zea mays); [16],0
same,"Plant response rating, Foxtail, Giant",[4]; [13],0
same,"Plant response rating, Foxtail, Giant",[4]; [14],60
same,"Plant response rating, Foxtail, Giant",[4]; [15],0
same,"Plant response rating, Foxtail, Giant",[4]; [16],0
same,"Plant response rating, Crabgrass, Large",[5]; [13],10
same,"Plant response rating, Crabgrass, Large",[5]; [14],10
same,"Plant response rating, Crabgrass, Large",[5]; [15],0
same,"Plant response rating, Crabgrass, Large",[5]; [16],0
same,"Plant response rating, Morningglory",[8]; [13],0
same,"Plant response rating, Morningglory",[8]; [14],0
same,"Plant response rating, Morningglory",[8]; [15],0
same,"Plant response rating, Morningglory",[8]; [16],0
same,"Plant response rating, Pigweed",[6]; [13],0
same,"Plant response rating, Pigweed",[6]; [14],0
same,"Plant response rating, Pigweed",[6]; [15],0
same,"Plant response rating, Pigweed",[6]; [16],0
same,"Plant response rating, Velvetleaf",[9]; [13],0
same,"Plant response rating, Velvetleaf",[9]; [14],0
same,"Plant response rating, Velvetleaf",[9]; [15],0
same,"Plant response rating, Velvetleaf",[9]; [16],0
same,"Plant response rating, Wheat",[7]; [13],0
same,"Plant response rating, Wheat",[7]; [14],20
same,"Plant response rating, Wheat",[7]; [15],0
same,"Plant response rating, Wheat",[7]; [16],0
same,"Plant response rating, Barnyardgrass",[10]; [17],0
same,"Plant response rating, Barnyardgrass",[10]; [18],0
same,"Plant response rating, Barnyardgrass",[10]; [19],0
same,"Plant response rating, Barnyardgrass",[10]; [20],0
same,"Plant response rating, Ducksalad",[11]; [17],0
same,"Plant response rating, Ducksalad",[11]; [18],0
same,"Plant response rating, Ducksalad",[11]; [19],0
same,"Plant response rating, Ducksalad",[11]; [20],0
same,"Plant response rating, Rice",rice (Oryza sativa); [17],0
same,"Plant response rating, Rice",rice (Oryza sativa); [18],0
same,"Plant response rating, Rice",rice (Oryza sativa); [19],0
same,"Plant response rating, Rice",rice (Oryza sativa); [20],0
same,"Plant response rating, Sedge, Umbrella",[12]; [17],0
same,"Plant response rating, Sedge, Umbrella",[12]; [18],0
same,"Plant response rating, Sedge, Umbrella",[12]; [19],0
same,"Plant response rating, Sedge, Umbrella",[12]; [20],0

# Source: US20100267561A1, “HERBICIDAL PYRIDAZINONE DERIVATIVES” (priority 2007, published 2010)
